# Data taken from patent publication US6469065B1, “Nitrosated and nitrosylated α-adrenergic receptor antagonist, compositions and methods of use” (NitroMed, Inc., priority 1996, dated 2002).
# Tests used:
# anesthetized rabbit [1] = test: In Vivo Comparative Erectile Responses—I: systemic blood pressure after intracavernosal injection; parameters: species or system Male New Zealand white rabbits; conditions: 500 μg, FIG. 5A
# Procedure: (§1) Male New Zealand white rabbits weighing 2.5 kg were used as the animal model. Animals were first relaxed with an i.m. injection of 25 mg/kg ketamine prior to anesthesia with a bolus i.v. injection of 10 mg/kg Profol and maintained with i.v. infusion at 0.5 mg/kg/minutes. Ventilation of the animals was performed with 1% halothane plus 0.8 L/min O2 and 1 L/min N2O. A 22 gauge angiocatheter was placed in the femoral artery for measurement of systemic blood pressure. A dorsal incision was made in the penis and the corpora cavemosum exposed and cannulated with a 21 gauge butterfly needle to measure intracavernosal pressure.
# (§2) Drugs at various concentrations were delivered intracavernosally at a volume of 150 μl through a 25 gauge needle. A 150 μl solution of a mixture of papaverine ([…]), phentolamine ([…]) and prostaglandin El (10 μg/ml) (pap/phent/PGE1) was injected in the corpora as a standard solution for comparison with the response of yohimbine, Example 1, Example 2, and the combination of yohimbine and Example 1. This pap/phent/PGE1 mixture is considered to cause a maximal erection-inducing effect.
# anesthetized rabbit [2] = test: In Vivo Comparative Erectile Responses—I: intracavernosal pressure after intracavernosal injection; parameters: species or system Male New Zealand white rabbits
# Procedure: as §1, §2
# anesthetized rabbit [3] = test: In vivo Comparative Erectile Responses—II: intracavernosal blood pressure (ICP) and duration; parameters: species or system White New Zealand male rabbits
# Procedure: White New Zealand male rabbits (2.6-3.0 kg) were anesthetized with pentobarbital sodium (30 mg/kg). The femoral artery was exposed and indwelled with PE 50 tubing connected to a transducer for recording systemic arterial blood pressure. The ventral aspect of the penis was then exposed via surgical cut and intracavernosal blood pressure was measured using a 23 gauge needle inserted to the corpus cavernosum. The contralateral corpus cavemosum was implanted with a 23 gauge needle for the administration of drugs.
# Following all surgical procedures, rabbits were allowed to rest for 10 minutes during which intracavernosal blood pressure (ICP) and mean arterial blood pressure (MABP) were continuously recorded.
# Drugs at various concentrations were prepared as aqueous solution (injection volume of 200 μL). Following drug injection the tubing was flushed with 100 μL distilled water. All drug treatments were administered after stable intracavernosal and systemic blood pressures were established. If an increase in intracavernosal blood pressure (ICP) was observed, the effect was monitored throughout its entire duration.
# The following parameters were obtained from each experimental recording: (i) Maximum ICP (mm Hg), (ii) Duration (minutes), defined as the time in minutes, that the increase in ICP is greater than the 50% difference between baseline and maximum response. Data were analyzed using ANOVA statistical analysis (p<0.05).
compound,measurement,setting,value
2-Acyl-17α(3-methyl-3-(nitrosothio)butanoxy)yohimban-16α-carboxylic Acid methyl ester hydrochloride Salt [Example 2],effect on systemic blood pressure,anesthetized rabbit [1],did not produce any effect on systemic blood pressure
same,duration of the erectile response,"anesthetized rabbit [2]; 500 μg and 1 mg, FIG. 4",longer duration of action compared to yohimbine
same,percent peak erectile response relative to pap/phent/PGE1,anesthetized rabbit [2]; 500 μg dose,equipotent to the standard dose of pap/phent/PGE1
same,percent peak erectile response relative to pap/phent/PGE1,anesthetized rabbit [2]; 1 mg dose,at least equal to or more efficacious than the standard dose of the pap/phent/PGE1 mixture
"4-[2-(Dimethylamino)ethoxy]-2-methyl-5-(methylethyl)phenyl 2-({N-[2-methyl-2-(nitrosothio)propyl]carbamoyl}methoxy)acetate, Fumaric Acid Salt [Example 9]",doses needed to produce a robust increase of ICP,"anesthetized rabbit [3]; 0.2-1.6 mg tested, FIG. 8 to FIG. 11",lower than the doses of Example 10
same,duration of the erectile response,"anesthetized rabbit [3]; 0.2-1.6 mg tested, FIG. 9",somewhat shorter than that of Example 10
"Cc1cc(OCCN(C)C)c(C(C)C)cc1OC(=O)CCC(=O)OCCC1(SN=O)C2CC3CC(C2)CC1C3.O=C(O)/C=C/C(=O)O (centres unmarked) [Example 10, 4-[2-(dimethylamino)ethoxy]-2-methyl-5-(methylethyl)phenyl 2-[2-(nitrosothio)adamantan-2-yl]ethyl butane-1,4-dioate, Fumaric Acid Salt]","peak erectile response, increase of ICP (magnitude)","anesthetized rabbit [3]; 1.07 mg, FIG. 10",moderate
same,duration of the erectile response,"anesthetized rabbit [3]; 1.07 mg, FIG. 11",short-lasting
same,duration of increase in intracavernosal pressure,anesthetized rabbit [3]; 2.13 mg,robust effect
same,magnitude of increase in intracavernosal pressure,anesthetized rabbit [3]; 2.13 mg,robust effect
same,duration of increase in intracavernosal pressure,anesthetized rabbit [3]; 4.26 mg,robust effect
same,duration of the erectile response,anesthetized rabbit [3]; 4.26 mg,exceeded 120 minutes
same,magnitude of increase in intracavernosal pressure,anesthetized rabbit [3]; 4.26 mg,robust effect
"Cc1cc(OCCN(C)C)c(C(C)C)cc1OC(=O)CC(C)(C)SN=O.Cl [Example 6, 4-[2-(Dimethylamino)ethoxy]-2-methyl-5-(methylethyl)phenyl 3-methyl-3-(nitrosothio)butanoate Hydrochloride]",percent peak erectile response relative to pap/phent/PGE1,anesthetized rabbit [2]; 1 mg dose,more efficacious than 1 mg moxisylyte
same,duration of the erectile response,"anesthetized rabbit [2]; 1 mg, FIG. 7",longer duration of erectile response compared to 1 mg moxisylyte
same,duration of the erectile response,"anesthetized rabbit [2]; 2 mg, FIG. 7",much longer duration of action compared to 2 mg moxisylyte
"COC(=O)[C@@H]1[C@H]2C[C@H]3c4[nH]c5ccccc5c4CCN3C[C@@H]2CC[C@@H]1O [yohimbine, reference compound]",percent peak erectile response relative to pap/phent/PGE1,"anesthetized rabbit [2]; 150 μg and 500 μg, FIG. 1",dose dependently induced erectile response
same,duration of the erectile response,"anesthetized rabbit [2]; submaximal (150 μg) and maximal (500 μg) efficacy doses, FIG. 2",very short duration of action
"N[C@@H](CCC(=O)N[C@@H](CSN=O)C(=O)NCC(=O)O)C(=O)O [Example 1, 4-(N-{(1R)-1-[N-(carboxymethyl)carbamoyl]-2-(nitrosothio)ethyl}carbamoyl)(2S)-2-aminobutanoic Acid]",percent peak erectile response relative to pap/phent/PGE1,anesthetized rabbit [2]; 500 μg dose,near maximal response
same,duration of the erectile response,"anesthetized rabbit [2]; 500 μg, FIG. 2",much longer duration of action
